Reference: patent publication US10253069B2, “Compositions and methods for regulating arterial tone” (University of Virginia Patent Foundation, priority 2012, dated 2019)

What was measured:
eNOS and Hb α complex = target: T1, eNOS and Hb α complex (Mus musculus, UniProt P70313); assay: Proximity ligation assay for eNOS and Hb α on thoracodorsal arteries
T1 construct: from tissue; host or cells: isolated mouse thoracodorsal arteries
T1 sequence (P70313 2-1202 limits assumed): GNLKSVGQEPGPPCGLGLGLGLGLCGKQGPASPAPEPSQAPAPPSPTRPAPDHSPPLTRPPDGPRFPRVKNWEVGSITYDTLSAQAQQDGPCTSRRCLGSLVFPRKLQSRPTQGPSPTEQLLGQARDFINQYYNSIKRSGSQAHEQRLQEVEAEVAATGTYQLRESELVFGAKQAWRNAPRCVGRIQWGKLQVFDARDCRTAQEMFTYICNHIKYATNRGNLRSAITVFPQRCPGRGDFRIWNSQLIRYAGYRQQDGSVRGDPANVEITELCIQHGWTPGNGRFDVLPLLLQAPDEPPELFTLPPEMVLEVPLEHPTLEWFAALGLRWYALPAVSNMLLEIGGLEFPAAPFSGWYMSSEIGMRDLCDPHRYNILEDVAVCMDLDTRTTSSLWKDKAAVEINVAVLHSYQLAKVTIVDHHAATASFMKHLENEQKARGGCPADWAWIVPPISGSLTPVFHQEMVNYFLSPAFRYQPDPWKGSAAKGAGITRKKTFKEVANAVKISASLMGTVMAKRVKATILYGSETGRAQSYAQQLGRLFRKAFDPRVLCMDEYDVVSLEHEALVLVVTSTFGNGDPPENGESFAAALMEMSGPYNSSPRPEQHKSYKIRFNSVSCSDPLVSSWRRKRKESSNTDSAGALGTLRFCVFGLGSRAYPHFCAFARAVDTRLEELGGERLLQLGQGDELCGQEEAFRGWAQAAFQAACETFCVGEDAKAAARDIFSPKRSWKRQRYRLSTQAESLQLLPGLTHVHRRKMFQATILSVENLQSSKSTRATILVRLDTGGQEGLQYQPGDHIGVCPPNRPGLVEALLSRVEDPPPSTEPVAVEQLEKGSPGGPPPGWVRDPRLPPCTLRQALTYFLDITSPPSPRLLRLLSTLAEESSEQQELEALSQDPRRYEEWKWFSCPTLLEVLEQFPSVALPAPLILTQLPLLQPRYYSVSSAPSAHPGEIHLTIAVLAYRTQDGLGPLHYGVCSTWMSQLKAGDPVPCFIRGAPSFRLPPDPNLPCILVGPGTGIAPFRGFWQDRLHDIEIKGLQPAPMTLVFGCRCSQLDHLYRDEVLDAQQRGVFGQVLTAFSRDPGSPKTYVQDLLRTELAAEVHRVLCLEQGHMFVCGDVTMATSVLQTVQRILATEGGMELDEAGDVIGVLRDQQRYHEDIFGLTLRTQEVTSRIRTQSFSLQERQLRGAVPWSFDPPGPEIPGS
Method: Isolated thoracodorsal arteries were perfused with Scr X or Hb α X peptide (5 μmol/L) for 20 minutes and immediately immersed in 4% paraformaldehyde, paraffin-embedded and sectioned as previously described^12. Next, sections were de-paraffinized, blocked and incubated with 1:500 mouse anti-eNOS (BD Biosciences), 1:500 rabbit anti-Hb α and 1:500 mouse anti-caveolin-1 (BD Biosciences) primary antibodies overnight at 4° C. The following day, secondary antibodies conjugated with oligonucleotide PLA probes were added, ligated and rolling circle amplification with fluorescent oligonucleotides identified positive interaction sites as previously described^9. All images were visualized and captured using an Olympus Fluoview 1000 confocal microscope. For proximity ligation assay quantitation, positive interactions indicated by red punctates on the endothelium were counted and divided by the circumference of the lumen using Metamorph software.

[1] = Blood pressure by radio telemetry, C57BL/6 mice; assay type: in vivo, mouse; details: single bolus 0.125 mg/kg intraperitoneal
Method: Blood pressure was measured in conscious wildtype or eNOS^−/− mice under unrestrained conditions using implanted radio telemetry units. Continuous blood pressure measurements were recorded using Dataquest A.R.T. 20 software (DSI). To do so, mice were anesthetized with isoflurane and the catheters (TA11PA-C10, Data Sciences International (DSI)) were implanted in the left carotid artery. The catheter was tunneled through to the radiotransmitter, which was placed in a subcutaneous pouch along the flank. Mice were allowed to recover for seven days after surgery to regain normal circadian rhythms before arterial pressure measurements and experiments were initiated. Thirty minutes prior to peptide injection, continuous blood pressure readings were recorded. Then, a bolus injection of Scr X or Hb α X peptide, or saline was administered via an intraperitoneal injection at 0.125 mg/kg. One hour post-injection, blood pressure was recorded for a 30 minute duration. The change in blood pressure was calculated by subtracting the average pre injection blood pressure from the average post-injection blood pressure.

[2] = tested on: eNOS phosphorylation on serine 1177; assay: Western blot of pS1177 eNOS in coronary endothelial cells; assay type: cell-based, human; details: 5 μmol/L peptide, 20 minutes
Method: Primary coronary endothelial cells (Lonza) were cultured on plastic 6-well dishes as previously described^9. For studies involving basal NO release, endothelial cells were incubated with 5 μmol/L of Scr X or Hb α X for 20 minutes followed by medium collection and nitrite measurements as described below. For bradykinin studies, coronary endothelial cells were grown to confluence followed by serum starvation overnight in a cocktail of Lonza EGM-2 medium supplemented with EGM-2 bullet kit and Opti MEM reduced growth medium using a ratio of 1:9 respectively. The next day, endothelial cells were incubated with Scr X or Hb α X peptide for 20 minutes followed by the addition of 10 μM bradykinin (Sigma) for 5 minutes followed by medium collection for nitrite measurements as described below.
Endothelial cells were harvested in lysis buffer, sonicated and subjected to electrophoresis using 10% Bis-Tris gels (Invitrogen) as previously described^13. Proteins were transferred to nitrocellulose, incubated with phospho-eNOS S1177 (BD Biosciences) or total eNOS (Sigma) and visualized and quantitated using Li-Cor Odyssey Imager as previously described^14.

Peptide LSFPTTKTYF (SEQ ID NO:2), first ten amino acids of the Hb α sequence, with HIV-tat tag YGRKKRRQRRR at the N-terminus [Hb α X]
Inhibition of association (eNOS and Hb α complex; ex vivo studies): > 90%
Colocalization / protein-protein interaction between eNOS and Hb α (eNOS and Hb α complex; thoracodorsal arteries, 5 μmol/L peptide, 20 minutes): significant loss of protein-protein interaction
Systolic, diastolic and mean arterial blood pressure [1]: significant decrease
Basal eNOS phosphorylation on serine 1177 [2]: no differences
